Reference: patent US11104968B2, “Site-specific conjugation of linker drugs to antibodies and resulting ADCS” (Byondis B.V., priority 2014, dated 2021)
Starred links: 1 amine or outer side, 2 acyl side, 3 side chain; linkers in the order of their positions; H or OH if unused. Non-standard residues stand in square brackets, D forms with d. Residues, ends and D or L forms follow the SMILES beside them. *: point of attachment. Dolaproine = CO[C@@H]([C@@H]1CCCN1)[C@@H](C)C(=O)O; Hexanoyl(6-maleimido) = O=C1C=CC(=O)N1CCCCCC(=O)*; Dil = CC[C@H](C)[C@H](NC)[C@@H](CC(=O)O)OC; PABC = O=C(OCc1ccc(N[*:1])cc1)[*:2]; X1 = C[C@@H](N*)[C@@H](O)c1ccccc1; Cit = NC(=O)NCCC[C@H](N)C(=O)O; NMeV = CN[C@H](C(=O)O)C(C)C

Key:
[1] = test system: PSMA-positive cell line LNCaP-C4.2; assay: In vitro cytotoxicity, PSMA-positive cell line; type: cell-based, human; conditions: for % efficacy: at the highest concentration tested (~100 nM)
[2] = test system: 5T4-positive cell line MDA-MB-468; assay: In vitro cytotoxicity, 5T4-positive cell line; type: cell-based, human; conditions: anti-5T4-vc-seco-DUBA ADCs
Description: The potencies of the engineered anti-5T4 ADCs were equal to the conventionally linked ADC H8-wt on 5T4-expressing MDA-MB-468 cells (IC50 between 0.07 and 0.09 nM, Table 6).

| Compound | IC50 ([1]; anti-PSMA-vc-MMAE ADCs) | % efficacy ([1]; anti-PSMA-vc-MMAE ADCs) | % efficacy ([1]; anti-PSMA-vc-seco-DUBA ADCs) | IC50 ([1]; anti-PSMA-vc-seco-DUBA ADCs, based on drug equivalents) | IC50 [2] | % efficacy ([2]; at the highest concentration tested (~100 nM)) |
| --- | --- | --- | --- | --- | --- | --- |
| CC[C@H](C)[C@@H]([C@@H](CC(=O)N1CCC[C@H]1[C@H](OC)[C@@H](C)C(=O)N[C@H](C)[C@@H](O)c1ccccc1)OC)N(C)C(=O)[C@@H](NC(=O)[C@H](C(C)C)N(C)C(=O)OCc1ccc(NC(=O)[C@H](CCCNC(N)=O)NC(=O)[C@@H](NC(=O)CCCCCN2C(=O)C=CC2=O)C(C)C)cc1)C(C)C [Free linker drug (vc-MMAE), vc-MMAE] ({Hexanoyl(6-maleimido)}-V[Cit][PABC][NMeV]V[Dil][Dolaproine]-X1) | 0.23 nM | 94% | – | – | – | – |
| Cc1cccc2c(OC(=O)N(CCOCCO)CCN(C)C(=O)OCc3ccc(NC(=O)[C@H](CCCNC(N)=O)NC(=O)[C@@H](NC(=O)OCCOCCN4C(=O)C=CC4=O)C(C)C)cc3)cc3c(c12)[C@H](CCl)CN3C(=O)c1cn2cc(NC(=O)c3ccc(O)cc3)ccc2n1 [Free linker drug, vc-seco-DUBA] | – | – | 98% | 0.02 nM | 0.02 nM | 94% |
